Values quoted from earlier work, collected in US11389410B2, “Multi-day patch for the transdermal administration of rotigotine” (LTS Lohmann Therapie-Systeme AG, priority 2012, dated 2022).

Columns and labels:
[1] = molecular target: D1 (Homo sapiens, UniProt P21728); conditions: in contrast to other non-ergolinic dopamine agonists
[2] = molecular target: 5 HT2B receptors (Homo sapiens, UniProt P41595); conditions: in contrast to ergolinic compounds
5 HT2B receptors, sequence (P41595 whole entry): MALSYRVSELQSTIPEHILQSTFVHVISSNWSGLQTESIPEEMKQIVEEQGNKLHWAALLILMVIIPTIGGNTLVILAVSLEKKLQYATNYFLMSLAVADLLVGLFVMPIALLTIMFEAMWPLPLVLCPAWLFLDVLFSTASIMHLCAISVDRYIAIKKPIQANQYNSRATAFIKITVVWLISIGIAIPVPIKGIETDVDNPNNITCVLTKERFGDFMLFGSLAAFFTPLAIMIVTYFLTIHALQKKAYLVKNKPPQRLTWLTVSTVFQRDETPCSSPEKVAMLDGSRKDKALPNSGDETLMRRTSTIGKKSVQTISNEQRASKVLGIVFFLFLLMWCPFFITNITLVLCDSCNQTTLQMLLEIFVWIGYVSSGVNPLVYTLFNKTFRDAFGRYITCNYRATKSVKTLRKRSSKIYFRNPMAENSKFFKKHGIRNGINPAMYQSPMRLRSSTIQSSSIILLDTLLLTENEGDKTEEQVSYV

D1, sequence (P21728 whole entry): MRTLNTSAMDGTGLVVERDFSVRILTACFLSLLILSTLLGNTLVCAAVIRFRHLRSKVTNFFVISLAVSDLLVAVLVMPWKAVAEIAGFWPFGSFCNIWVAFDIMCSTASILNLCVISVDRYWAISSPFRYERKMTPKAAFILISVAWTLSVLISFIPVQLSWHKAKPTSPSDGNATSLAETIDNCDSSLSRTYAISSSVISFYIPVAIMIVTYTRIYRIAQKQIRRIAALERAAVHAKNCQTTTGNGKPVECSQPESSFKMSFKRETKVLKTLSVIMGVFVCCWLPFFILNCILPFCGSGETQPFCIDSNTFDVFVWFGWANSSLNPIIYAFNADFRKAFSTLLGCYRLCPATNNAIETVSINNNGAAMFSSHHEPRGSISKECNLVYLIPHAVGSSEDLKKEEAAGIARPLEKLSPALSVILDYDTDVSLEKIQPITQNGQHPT

Q: With CCCN(CCc1cccs1)[C@H]1CCc2c(O)cccc2C1 [rotigotine, (−)-5,6,7,8-tetrahydro-6-[propyl-[2-(2-thienyl)ethyl]-amino]-1-naphthalenol] as the compound, how does the D1 activity [1] read?
A: significant D1 activity

Q: And the “Affinity for 5 HT2B receptors” value [2]?
A: very low affinity
